Where two headings read alike, the source gives them in different places.
Experiments:
HMEC-1 = assay: Cytotoxicity on HMEC-1 (MTT); assay type: cell-based, human; conditions: Homo sapiens, read-out: Healthy Cell Lines IC50, HMEC-1
Protocol: Cytotoxicity was evaluated on human microvascular endothelial cells (HMEC-1, provided by the Centers for Disease Control, Atlanta, GA, USA), on immortalized mouse C57Bl/6 bone marrow derived macrophages (BMDM) from wild type lineage (generated in the laboratories of Drs. Douglas Golenbock and Kate Fitzgerald, University of Massachusetts, Worcester, MA, USA) and on a human acute monocytic leukaemia cell line (THP-1).
HMEC-1 were maintained in MCDB 131 medium (Invitrogen, Milan, Italy) supplemented with 10% fetal calf serum (HyClone), 10 ng/mL of epidermal growth factor, 1 μg/mL of hydrocortisone, 2 mM glutamine and 20 mM HEPES buffer, at 37 °C in 5% CO2. BMDM were maintained in DMEM (Euroclone) medium supplemented with 10% fetal bovine serum (HyClone, Celbio, Milan, Italy), 2 mM glutamine, and 25 mM of HEPES buffer solution (Euroclone). THP-1 were maintained in RPMI supplemented with 10% heat-inactivated FCS, 50 µM 2-mercaptoethanol, 10 µM sodium pyruvate, 20 mM HEPES, and 2 mM glutamine. In order to achieve differentiation into macrophages, cells were treated with 10 ng/mL phorbol myristate acetate (PMA) for 72 h.
For the cytotoxicity assay, cells were seeded in 96 well flat bottom tissue culture clusters (Costar, New York, NY, USA) at the following concentrations: HMEC 10^5 cell/mL, BMDM at 10^6 cell/mL, THP1 at 5 × 10^5 cell/mL. After 24 h, cells were treated with serial dilutions of test compounds in a final volume of 200 µL/well. Cell proliferation was evaluated after 72 h using the MTT assay.
The absorbances were measured with a microplate spectrophotometer (Synergy 4-Biotek) at a test wavelength of 550 nm and a reference wavelength of 650 nm. The results are expressed as IC50 as the concentration inhibiting 50% of cell growth. Each IC50 value is the mean and standard deviation of at least three separate experiments performed in duplicate.

LbHsp90 = LbHsp90 (Leishmania braziliensis, UniProt A4HL70); assay: LbHsp90 ATPase kinetics (NADH-coupled enzymatic cascade); assay type: biochemical; conditions: for LbHsp90 Inhibition (%): compound 50 μM, 3.5 μM LbHsp90, 1 mM ATP; for inhibition at 50 µM: read-out: LbHsp90 Inhibition (%), compound 50 μM, 3.5 μM LbHsp90, 1 mM ATP
LbHsp90, sequence (A4HL70 entry or part of it): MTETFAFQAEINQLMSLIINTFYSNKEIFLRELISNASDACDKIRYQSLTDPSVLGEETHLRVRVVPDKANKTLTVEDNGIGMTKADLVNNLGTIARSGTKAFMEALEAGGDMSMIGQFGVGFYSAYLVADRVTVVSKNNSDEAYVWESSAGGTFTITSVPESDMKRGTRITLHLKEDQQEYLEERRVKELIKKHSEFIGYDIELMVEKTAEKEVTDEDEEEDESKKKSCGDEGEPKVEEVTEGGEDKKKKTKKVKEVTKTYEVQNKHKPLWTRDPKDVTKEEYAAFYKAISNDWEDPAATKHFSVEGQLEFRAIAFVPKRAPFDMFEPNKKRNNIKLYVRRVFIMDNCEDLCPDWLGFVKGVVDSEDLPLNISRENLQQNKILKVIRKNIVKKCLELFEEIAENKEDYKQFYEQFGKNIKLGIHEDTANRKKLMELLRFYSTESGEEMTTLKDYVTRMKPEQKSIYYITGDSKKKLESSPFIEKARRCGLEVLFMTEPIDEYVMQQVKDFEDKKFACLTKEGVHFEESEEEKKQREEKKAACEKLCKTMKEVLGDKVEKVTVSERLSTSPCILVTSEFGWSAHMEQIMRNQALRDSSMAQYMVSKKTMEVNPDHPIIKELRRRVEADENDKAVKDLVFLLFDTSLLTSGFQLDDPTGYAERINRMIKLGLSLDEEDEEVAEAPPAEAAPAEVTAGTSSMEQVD
Protocol: The reaction was initiated by the addition of ATP (1 mM) and absorbance changes at 346 nm were monitored for 30 min at 30 °C.
Native LbHsp90 kinetics was measured as described but in the absence of DMSO. Two control experiments were run as follows: • (1) Efficiency of the enzymatic cascade by the used compounds: HEPES buffer (20 mM, pH 7.5) containing KCl (100 mM), MgCl2 (1 mM), ADP (1 mM), NADH (0.18 mM), L-lactate dehydrogenase (4 U mL^−1), phosphoenolpyruvate (1 mM), pyruvate kinase (2.5 U mL^−1); • (2) Interference of the tested compound(s) with the enzymatic cascade: HEPES buffer (20 mM, pH 7.5) containing KCl (100 mM), MgCl2 (1 mM), ADP (1 mM), NADH (0.18 mM), L-lactate dehydrogenase (4 U mL^−1), phosphoenolpyruvate (1 mM), pyruvate kinase (2.5 U mL^−1) and 50 μM compound.
Accordingly, an in vitro assay developed for the evaluation of non-competitive allosteric modulators, which exploits ATPase kinetics data, was used. Briefly, the decrease in absorbance deriving from the continuous oxidation of NADH to NAD^+ produced by a multi-enzymatic cascade triggered by LbHp90-catalyzed ATP hydrolysis is followed spectrophotometrically over the course of 15 min (for details see Appendix B). All the experiments were normalized using the native ATPase activity of LbHsp90 measured in the presence of DMSO, the co-solvent selected for compounds solubilization.
Figure A1 Enzymatic cascade reactions to spectroscopically evaluate L. Hsp90 ATPase kinetics. The ADP produced by ATP hydrolysis during the chaperone cycle reacts with PEP (phosphoenolpyruvate) to form pyruvate in a reaction catalyzed by the enzyme pyruvate kinase (PK), whereby ATP is regenerated. Pyruvate then continues the cascade process and is reduced to lactic acid by action of lactate dehydrogenase (LDH), whereby NADH is oxidized to NAD^+.
LbHsp90 inhibition (%) = (1 − k/knative) * 100 k = ΔAbs/min = extrapolated apparent kinetic constant (Abs/min)

[1] = test system: L. infantum promastigotes; assay: Morphological differentiation of Leishmania promastigotes; assay type: cell-based, Leishmania infantum; conditions: 50 ng/mL, 23 °C, 48 h (Figure 6)
Protocol: L. infantum promastigotes were diluted in complete medium to 4 × 10^7 parasites/mL and 250 µL of the suspension were seeded into the 24 wells plates and incubated at 23 °C in the presence of geldanamycin, CE or compound 2 at the final concentration of 50 ng/mL. Cultures without drugs incubated at 23 °C or at 37 °C were used as negative and positive control, respectively. After 24 or 48 h of incubation, parasite morphology was evaluated by optical microscopy at 100× (Eclipse Ti Series, Nikon, Minato, Tokyo, Japan) on Giemsa stained smears (a mixture of eosin, methylene blue and Azure-B diluted 1:10). The percent of round promastigotes in treated and non-treated cells was determined. Images were taken at the same magnification by using a digital camera (Nikon Digital Sight). About 500 promastigotes were counted in 4 random fields.
The compounds were incubated (23 °C, physiological pH) with L. infantum promastigotes at a sub-IC50 concentration of 50 ng/mL. […] After 24 h and 48 h the presence of round, amastigote-like cells, was monitored (Figure 6). A negative and positive control experiment (NC and PC, Figure 6a,b) were also conducted growing the promastigotes at 23 °C and 37 °C, respectively.

L. infantum amastigotes = assay: Antileishmanial activity on intramacrophage amastigotes of L. infantum; assay type: cell-based, Leishmania infantum; conditions: Leishmania infantum; infected THP-1 macrophages, 72 h
Protocol: Cell monolayers were then washed and incubated in the presence of test compounds for 72 h. Slides were fixed with methanol and stained with Giemsa. The percentage of infected macrophages in treated and non-treated cells was determined by light microscopy.

Row | SMILES | IC50 (HMEC-1; HMEC-1, 72 h) | LbHsp90 Inhibition (%) (LbHsp90) | inhibition at 50 µM (LbHsp90) | round amastigote-like cells (morphological differentiation) [1] | IC50 (HMEC-1; HMEC-1, 72 h, MTT) | melting point | IC50 (L. infantum amastigotes)
1 | CC1=C(O)C(=O)C=C2C1=CC=C1[C@@]2(C)CC[C@@]2(C)[C@@H]3C[C@](C)(C(=O)O)CC[C@]3(C)CC[C@]12C [CE, celastrol] | 380 ± 80 nM | 28.9 ± 5.4% | 30% | neither CE nor compound 3 produced this effect |  |  | 
2 | CC1=C(O)C(=O)C=C2C1=CC=C1[C@@]2(C)CC[C@@]2(C)[C@@H]3C[C@](C)(C(=O)NCCN4CCCCC4)CC[C@]3(C)CC[C@]12C [compound 1, (2R,4aS,6aS,12bR,14aS,14bR)-10-hydroxy-2,4a,6a,9,12b,14a-hexamethyl-11-oxo-N-(2-(piperidin-1-yl)ethyl)-1,2,3,4,4a,5,6,6a,11,12b,13,14,14a,14b-tetradecahydropicene-2-carboxamide] |  |  |  |  | 510 ± 80 nM | 137 to 138.6 °C | 190 ± 110 nM
3 | CC1=C(O)C(=O)C=C2C1=CC=C1[C@@]2(C)CC[C@@]2(C)[C@@H]3C[C@](C)(C(=O)NCCN4CCCC4)CC[C@]3(C)CC[C@]12C [compound 3, (2R,4aS,6aS,12bR,14aS,14bR)-10-hydroxy-2,4a,6a,9,12b,14a-hexamethyl-11-oxo-N-(2-(pyrrolidin-1-yl)ethyl)-1,2,3,4,4a,5,6,6a,11,12b,13,14,14a,14b-tetradecahydropicene-2-carboxamide] |  | 97.8 ± 1.2% | 95% | neither CE nor compound 3 produced this effect | 530 ± 170 nM | 135.6 to 138 °C | 130 ± 90 nM
4 | CC1=C(O)C(=O)C=C2C1=CC=C1[C@@]2(C)CC[C@@]2(C)[C@@H]3C[C@](C)(C(=O)NCC45CCCN4CCC5)CC[C@]3(C)CC[C@]12C [compound 5, (2R,4aS,6aS,12bR,14aS,14bR)-N-((hexahydro-1H-pyrrolizin-7a-yl)methyl)-10-hydroxy-2,4a,6a,9,12b,14a-hexamethyl-11-oxo-1,2,3,4,4a,5,6,6a,11,12b,13,14,14a,14b-tetradecahydropicene-2-carboxamide] |  |  |  |  | 120 ± 30 nM | 250.8 to 254.7 °C | 520 ± 280 nM
5 | CC1=C(O)C(=O)C=C2C1=CC=C1[C@@]2(C)CC[C@@]2(C)[C@@H]3C[C@](C)(C(=O)NCCNc4ccnc5cc(Cl)ccc45)CC[C@]3(C)CC[C@]12C [compound 6, (2R,4aS,6aS,12bR,14aS,14bR)-N-(2-((7-chloroquinolin-4-yl)amino)ethyl)-10-hydroxy-2,4a,6a,9,12b,14a-hexamethyl-11-oxo-1,2,3,4,4a,5,6,6a,11,12b,13,14,14a,14b-tetradecahydropicene-2-carboxamide] |  |  |  |  | 400 ± 30 nM | 165.7 to 167.9 °C | 660 ± 60 nM
6 | CC1=C(O)C(=O)C=C2C1=CC=C1[C@@]2(C)CC[C@@]2(C)[C@@H]3C[C@](C)(C(=O)NCCSS(C)(=O)=O)CC[C@]3(C)CC[C@]12C [compound 9, S-(2-((2R,4aS,6aS,12bR,14aS,14bR)-10-hydroxy-2,4a,6a,9,12b,14a-hexamethyl-11-oxo-1,2,3,4,4a,5,6,6a,11,12b,13,14,14a,14b-tetradecahydropicene-2-carboxamido)ethyl) methanesulfonothioate] |  |  |  |  | 4070 ± 50 nM |  | 

— publication PMC7824787, “Design, Synthesis and In Vitro Investigation of Novel Basic Celastrol Carboxamides as Bio-Inspired Leishmanicidal Agents Endowed with Inhibitory Activity against Leishmania Hsp90” (Biomolecules, 2021)
